Data as given in the NIST ThermoML archive (doi:10.1016/j.jct.2019.03.007).

Assay: molar heat capacity at constant pressure
Conditions: 101.33 kPa, Crystal 1, DSC

O=[N+]([O-])[O-].O=[N+]([O-])[O-].[Ca+2] [calcium nitrate]
Conditions	molar heat capacity at constant pressure [J/K/mol]
588.78 K	184.89
589 K	182.82
589.78 K	184.99
590 K	182.96
590.78 K	185.09
591 K	183.01
591.78 K	185.18
592 K	183.11
592.78 K	185.28
593 K	183.23
593.78 K	185.38
594 K	183.3
594.78 K	185.47
595 K	183.39
595.78 K	185.57
596 K	183.46
596.78 K	185.66
597 K	183.59
597.78 K	185.76
598 K	183.69
598.78 K	185.85
599 K	183.86
599.78 K	185.95
600 K	183.94
600.78 K	186.04
601 K	184.09
601.78 K	186.13
602 K	184.37
602.78 K	186.22
603 K	184.48
603.78 K	186.31
604 K	184.5
604.78 K	186.4
605 K	184.57
605.78 K	186.49
606 K	184.76
606.78 K	186.58
607 K	184.8
607.78 K	186.67
608 K	184.92
608.78 K	186.76
609 K	184.95
609.78 K	186.85
610 K	185
610.78 K	186.93
611 K	185.16
611.78 K	187.02
612 K	185.17
612.78 K	187.1
613 K	185.37
613.78 K	187.19
614 K	185.43
614.78 K	187.28
615 K	185.38
615.78 K	187.37
616 K	185.46
616.78 K	187.46
617 K	185.59
617.78 K	187.56
618 K	185.67
618.78 K	187.65
619 K	185.79
619.78 K	187.75
620 K	185.94
620.78 K	187.84
621 K	185.97
621.78 K	187.94
622 K	185.98
622.78 K	188.03
623 K	186.1
623.78 K	188.13
624 K	186.22
624.78 K	188.23
625 K	186.24
625.78 K	188.32
626 K	186.32
626.78 K	188.42
627 K	186.29
627.78 K	188.51
628 K	186.36
628.78 K	188.61
629 K	186.58
629.78 K	188.7
630 K	186.72
630.78 K	188.8
631 K	186.76
631.78 K	188.9
632 K	186.86
632.78 K	189
633 K	186.9
633.78 K	189.1
634 K	187.01
634.78 K	189.2
635 K	187.13
635.78 K	189.3
636 K	187.08
636.78 K	189.41
637 K	187.29
637.78 K	189.51
638 K	187.33
638.78 K	189.61
639 K	187.55
639.78 K	189.71
640 K	187.7
640.78 K	189.82
641 K	187.58
641.78 K	189.92
642 K	187.69
642.78 K	190.01
643 K	187.72
643.78 K	190.11
644 K	187.93
644.78 K	190.2
645 K	188.1
645.78 K	190.29
646 K	188.11
646.78 K	190.39
647 K	188.18
647.78 K	190.49
648 K	188.31
648.78 K	190.58
649 K	188.36
649.78 K	190.69
650 K	188.66
650.78 K	190.8
651 K	188.76
651.78 K	190.9
652 K	188.78
652.78 K	191.02
653 K	188.91
653.78 K	191.13
654 K	188.99
654.78 K	191.25
655 K	189.03
655.78 K	191.36
656 K	189.11
656.78 K	191.46
657 K	189.18
657.78 K	191.57
658 K	189.28
658.78 K	191.67
659 K	189.43
659.78 K	191.77
660 K	189.5
660.78 K	191.87
661 K	189.61
661.78 K	191.96
662 K	189.79
662.78 K	192.06
663 K	189.99
663.78 K	192.15
664 K	190.04
664.78 K	192.23
665 K	190.04
665.78 K	192.32
666 K	190.16
666.78 K	192.4
667 K	190.23
667.78 K	192.49
668 K	190.12
668.78 K	192.56
669 K	190.21
669.78 K	192.64
670 K	190.28
670.78 K	192.72
671 K	190.33
671.78 K	192.79
672 K	190.55
672.78 K	192.86
673 K	190.57
673.78 K	192.94
674 K	190.71
674.78 K	193.03
675 K	190.83
675.78 K	193.12
676 K	190.98
676.78 K	193.22
677 K	191.19
677.78 K	193.31
678 K	191.02
678.78 K	193.41
679 K	190.93
679.78 K	193.5
680 K	191.02
680.78 K	193.6
681 K	191.22
681.78 K	193.69
682 K	191.4
682.78 K	193.78
683 K	191.29
683.78 K	193.87
684 K	191.45
684.78 K	193.96
685 K	191.66
685.78 K	194.03
686 K	191.74
686.78 K	194.08
687 K	191.8
687.78 K	194.13
688 K	191.86
688.78 K	194.18
689 K	191.92
689.78 K	194.23
690 K	192.07
690.78 K	194.31
691 K	192.16
691.78 K	194.39
692 K	192.21
692.78 K	194.47
693 K	192.34
693.78 K	194.54
694 K	192.63
694.78 K	194.6
695 K	192.66
695.78 K	194.65
696 K	192.73
696.78 K	194.69
697 K	192.85
697.78 K	194.72
698 K	192.92
698.78 K	194.76
699 K	192.96
699.78 K	194.82
700 K	193.02
700.78 K	194.88
701 K	192.93
701.78 K	194.97
702 K	193.11
702.78 K	195.08
703 K	193.19
703.78 K	195.21
704 K	193.21
704.78 K	195.34
705 K	193.35
705.78 K	195.47
706 K	193.66
706.78 K	195.61
707 K	193.92
707.78 K	195.75
708 K	194.3
708.78 K	195.89
709 K	194.69
709.78 K	196.04
710 K	194.54
710.78 K	196.23
711 K	194.48
711.78 K	196.47
712 K	194.48
712.78 K	196.76
713 K	194.61
713.78 K	197.06
714.78 K	197.32
715.78 K	197.53
716.78 K	197.7
717.78 K	197.7
718.78 K	197.46
